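In this assay, cells in 96-well plates receive the compound at five concentrations for 48 hours. Endpoints are linearly interpolated between the surrounding concentrations. At the GI50, growth is halved.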 Active and inactive are the calls of the source. No stated cut-off is given here; in the data, active = GI50 up to about 1.1 µM and inactive = higher.
Columns and labels:
Assay in all cases: inhibition of tumour cell growth, NCI panel, 48 h
LOX IMVI = system: LOX IMVI
K562 = system: K562
RPMI-8226 = system: RPMI-8226
UO-31 = system: UO-31
A549 = system: A549
NCI-H23 = system: NCI-H23
SW-620 = system: SW-620
NCI-H226 = system: NCI-H226
A498 = system: A498
NCI-H460 = system: NCI-H460
SF-539 = system: SF-539
Malme-3M = system: Malme-3M
CCRF-CEM = system: CCRF-CEM
MOLT-4 = system: MOLT-4
SNB-75 = system: SNB-75
ACHN = system: ACHN
HL-60 = system: HL-60
OVCAR-5 = system: OVCAR-5

Measured: GI50

COc1ccc(C(=O)Nc2ccccc2)cc1[N+](=O)[O-]
inactive: LOX IMVI > 100 µM | K562 > 100 µM | RPMI-8226 > 100 µM | UO-31 81.5 µM | A549 > 100 µM | NCI-H23 > 100 µM | SW-620 > 100 µM | NCI-H226 > 100 µM | A498 > 100 µM | NCI-H460 > 100 µM | SF-539 > 100 µM | Malme-3M > 100 µM | CCRF-CEM > 100 µM | MOLT-4 97.5 µM | SNB-75 59.7 µM

Cc1cc(C)nc(NS(=O)(=O)c2ccc(NC(=O)c3cccn4c(=O)c5ccccc5nc34)cc2)n1
inactive: LOX IMVI 29.1 µM | ACHN > 100 µM | K562 32.1 µM | UO-31 27.5 µM | A549 > 100 µM | NCI-H23 35.3 µM | SW-620 34.9 µM | NCI-H226 37.6 µM | NCI-H460 41.5 µM | SF-539 38.5 µM | CCRF-CEM 27.5 µM | HL-60 21.5 µM | MOLT-4 23.8 µM | OVCAR-5 > 100 µM | SNB-75 32.7 µM

CN(C)C(=S)/N=c1\ss/c(=N\C(=S)N(C)C)n1Cc1ccco1
inactive: ACHN > 100 µM | K562 > 100 µM | RPMI-8226 > 100 µM | UO-31 > 100 µM | A549 > 100 µM | SW-620 > 100 µM | NCI-H226 > 100 µM | A498 > 100 µM | NCI-H460 > 100 µM | SF-539 > 100 µM | Malme-3M > 100 µM | CCRF-CEM > 100 µM | HL-60 > 100 µM | MOLT-4 > 100 µM | SNB-75 > 100 µM

O=C1CC(O)C=C1Nc1ccc(Cl)cc1 (stereo unspecified)
inactive: LOX IMVI 25.4 µM | ACHN 6.98 µM | K562 4.4 µM | UO-31 31.3 µM | A549 5.81 µM | NCI-H23 29 µM | SW-620 34.1 µM | NCI-H226 > 100 µM | A498 13.8 µM | NCI-H460 23.1 µM | SF-539 61.7 µM | Malme-3M 59.8 µM | CCRF-CEM 11.4 µM | HL-60 13.1 µM | MOLT-4 16.4 µM | OVCAR-5 90.8 µM | SNB-75 26.5 µM

CCOC1=C2N=C(C(CC)c3ccc(F)cc3)N=C2C(=O)c2ccccc21 (stereo unspecified)
inactive: LOX IMVI 16.2 µM | ACHN 19.1 µM | K562 20.6 µM | RPMI-8226 23.8 µM | UO-31 13.2 µM | A549 22.1 µM | NCI-H23 25.3 µM | SW-620 36.4 µM | NCI-H226 16 µM | NCI-H460 26.5 µM | SF-539 16.3 µM | Malme-3M 23.3 µM | CCRF-CEM 40 µM | HL-60 35.3 µM | MOLT-4 18 µM | OVCAR-5 26.6 µM | SNB-75 21 µM

COC(=O)CC(=O)OC
inactive: LOX IMVI > 100 µM | ACHN > 100 µM | K562 > 100 µM | RPMI-8226 > 100 µM | UO-31 > 100 µM | A549 > 100 µM | NCI-H23 > 100 µM | SW-620 > 100 µM | A498 > 100 µM | NCI-H460 > 100 µM | SF-539 > 100 µM | Malme-3M > 100 µM | CCRF-CEM > 100 µM | HL-60 > 100 µM | MOLT-4 > 100 µM | OVCAR-5 > 100 µM | SNB-75 > 100 µM

Cc1ccc(/C=C/C(=O)c2cccc3ccccc23)cc1
inactive: LOX IMVI > 10 µM | ACHN 16.9 µM | K562 8.65 µM | RPMI-8226 2.49 µM | UO-31 25 µM | A549 16.7 µM | NCI-H23 > 10 µM | SW-620 13.5 µM | NCI-H226 17.8 µM | A498 13.9 µM | NCI-H460 15.2 µM | Malme-3M 15.3 µM | CCRF-CEM 15.9 µM | HL-60 7.18 µM | MOLT-4 13.6 µM | OVCAR-5 14.4 µM | SNB-75 19.1 µM

CCCCCC(=O)C(C)C1=Nc2nnc(CCCCCCCc3nnc4n3C(=O)C(C(C)C(=O)CCCCC)=N4)n2C1=O (stereo unspecified)
inactive: LOX IMVI > 100 µM | ACHN > 100 µM | K562 > 100 µM | RPMI-8226 > 100 µM | UO-31 > 100 µM | A549 > 100 µM | NCI-H23 > 100 µM | SW-620 > 100 µM | NCI-H226 > 100 µM | NCI-H460 > 100 µM | SF-539 > 100 µM | Malme-3M > 100 µM | CCRF-CEM > 100 µM | HL-60 > 100 µM | MOLT-4 > 100 µM | OVCAR-5 > 100 µM | SNB-75 > 100 µM

CCCN(CCC)C(=O)c1c([N+](=O)[O-])cc(C(F)(F)F)cc1[N+](=O)[O-]
inactive: LOX IMVI 35.7 µM | ACHN 65.9 µM | K562 28.3 µM | RPMI-8226 47.6 µM | UO-31 > 100 µM | A549 32.5 µM | NCI-H23 25.4 µM | SW-620 27.7 µM | NCI-H226 19.3 µM | A498 75.7 µM | NCI-H460 37 µM | SF-539 41.6 µM | CCRF-CEM 62.4 µM | HL-60 20 µM | MOLT-4 52.6 µM | OVCAR-5 65.5 µM | SNB-75 > 100 µM

CCc1cccc(NC(=O)c2cc(/C=C/c3ccccc3)nc(S)n2)c1
inactive: ACHN > 100 µM | K562 > 100 µM | RPMI-8226 > 100 µM | UO-31 > 100 µM | A549 > 100 µM | NCI-H23 > 100 µM | SW-620 > 100 µM | NCI-H226 > 100 µM | A498 > 100 µM | NCI-H460 > 100 µM | SF-539 > 100 µM | Malme-3M > 100 µM | CCRF-CEM > 100 µM | HL-60 > 100 µM | MOLT-4 > 100 µM | OVCAR-5 > 100 µM | SNB-75 > 100 µM

COc1ccc(C2=NC(CO)[C@H](c3ccccc3)O2)cc1OC (stereo partly specified)
inactive: LOX IMVI > 100 µM | ACHN > 100 µM | K562 > 100 µM | UO-31 > 100 µM | A549 > 100 µM | SW-620 > 100 µM | NCI-H226 > 100 µM | A498 > 100 µM | NCI-H460 > 100 µM | SF-539 > 100 µM | Malme-3M > 100 µM | CCRF-CEM > 100 µM | HL-60 > 100 µM | MOLT-4 > 100 µM | OVCAR-5 > 100 µM | SNB-75 > 100 µM

CC1(C)C(=NNC(=O)C[N+](C)(C)C)C(C)(C)C1=NNC(=O)C[N+](C)(C)C
inactive: LOX IMVI 72.9 µM | ACHN > 100 µM | K562 > 100 µM | UO-31 > 100 µM | A549 > 100 µM | NCI-H23 > 100 µM | NCI-H226 > 100 µM | A498 > 100 µM | NCI-H460 > 100 µM | SF-539 > 100 µM | Malme-3M > 100 µM | CCRF-CEM > 100 µM | HL-60 > 100 µM | MOLT-4 > 100 µM | OVCAR-5 > 100 µM | SNB-75 > 100 µM

From ChEMBL document CHEMBL1201862, “PubChem BioAssay data set” (2004)
